Structures are written as SMILES. Like-named read-outs stand apart in the source and are kept apart here. Bounds are passed on as bounds.

By EC50 is commonly meant the concentration needed to bring the measured effect to its halfway point.

The assay has as its system HIV-1 single-round infectious reporter virus. The experiment in a line: Single-round infectious HIV-1 reporter virus (luciferase) infection assay in HeLa CD4 cells. The settings on record: Human immunodeficiency virus 1, HeLa, 72 h.
The mark [1] stands for this setting: read-out: HIV_SC10PT (EC50, nM).
[2] abbreviates: read-out: HIV_SC10PT (EC50, nM), group symbol.

Protocol: 2. Compound was added in a 2 μl dimethylsulfoxide solution, so that the final assay concentration would be ≦10 μM.
3. 100 μl of single-round infectious reporter virus in Dulbecco's Modified Eagle Medium was then added to the plated cells and compound at an approximate multiplicity of infection (MOI) of 0.01, resulting in a final volume of 200 μl per well.
4. Virally-infected cells were incubated at 37 degrees Celsius, in a CO2 incubator, and harvested 72 h after infection.
5. Viral infection was monitored by measuring luciferase expression from viral DNA in the infected cells using a luciferase reporter gene assay kit, as described by the manufacturer (Roche Molecular Biochemicals, Indianapolis, Ind.). Infected cell supernatants were removed and 50 μl of lysis buffer was added per well. After 15 minutes, 50 μl of freshly-reconstituted luciferase assay reagent was added per well. Luciferase activity was then quantified by measuring luminescence using a Wallac MICROBETA® scintillation counter.
7. An EC50 provides a method for comparing the antiviral potency of the compounds of this disclosure. The effective concentration for fifty percent inhibition (EC50) was calculated with the Microsoft Excel Xlfit curve fitting software.

Turning to `COc1cnc(-n2cnc(C)n2)c2[nH]cc(C(=O)C(=O)N3CCc4c(cccc4-c4ccccc4)C3)c12` [Compound 1, 1-(4-methoxy-7-(3-methyl-1H-1,2,4-triazol-1-yl)-1H-pyrrolo[2,3-c]pyridin-3-yl)-2-(5-phenyl-3,4-dihydroisoquinolin-2(1H)-yl)ethane-1,2-dione], under setting [1], the EC50 was 0.02 nM.
Take `COc1cnc(-n2cnc(C)n2)c2[nH]cc(C(=O)C(=O)N3CCc4c(cccc4-c4ccccn4)C3)c12` [Compound 2, 1-(4-methoxy-7-(3-methyl-1H-1,2,4-triazol-1-yl)-1H-pyrrolo[2,3-c]pyridin-3-yl)-2-(5-(pyridin-2-yl)-3,4-dihydroisoquinolin-2(1H)-yl)ethane-1,2-dione]: the EC50 under setting [2] is below 100 nM.
Consider `CNC(=O)c1cc(-c2ncc(OC)c3c(C(=O)C(=O)N4CCc5c(cccc5-c5ccccn5)C4)c[nH]c23)n[nH]1` [Compound 4, 3-(4-methoxy-3-(2-oxo-2-(5-(pyridin-2-yl)-3,4-dihydroisoquinolin-2(1H)-yl)acetyl)-1H-pyrrolo[2,3-c]pyridin-7-yl)-N-methyl-1H-pyrazole-5-carboxamide], for which the EC50 under setting [2] is below 100 nM.
The same measure, in the same setting: then `CNC(=O)c1ncc(OC)c2c(C(=O)C(=O)N3CCc4c(cccc4-c4ccccn4)C3)c[nH]c12` [Compound 5, 4-methoxy-N-methyl-3-(2-oxo-2-(5-(pyridin-2-yl)-3,4-dihydroisoquinolin-2(1H)-yl)acetyl)-1H-pyrrolo[2,3-c]pyridine-7-carboxamide], with below 100 nM; and `COc1cnc(C(=O)NCCO)c2[nH]cc(C(=O)C(=O)N3CCc4c(cccc4-c4ccccn4)C3)c12` [Compound 6, N-(2-hydroxyethyl)-4-methoxy-3-(2-oxo-2-(5-(pyridin-2-yl)-3,4-dihydroisoquinolin-2(1H)-yl)acetyl)-1H-pyrrolo[2,3-c]pyridine-7-carboxamide], with below 100 nM; and `COc1cnc(-c2cc(C(=O)O)[nH]n2)c2[nH]cc(C(=O)C(=O)N3CCc4c(cccc4-c4ccccn4)C3)c12` [Compound 7, 3-(4-methoxy-3-(2-oxo-2-(5-(pyridin-2-yl)-3,4-dihydroisoquinolin-2(1H)-yl)acetyl)-1H-pyrrolo[2,3-c]pyridin-7-yl)-1H-pyrazole-5-carboxylic acid], with below 100 nM.
The same measure, in the same setting: then `COc1cnc(-c2cc(C(=O)N(C)C)[nH]n2)c2[nH]cc(C(=O)C(=O)N3CCc4c(cccc4-c4ccccn4)C3)c12` [Compound 8, 3-(4-methoxy-3-(2-oxo-2-(5-(pyridin-2-yl)-3,4-dihydroisoquinolin-2(1H)-yl)acetyl)-1H-pyrrolo[2,3-c]pyridin-7-yl)-N,N-dimethyl-1H-pyrazole-5-carboxamide], with below 100 nM.
On to `COc1cnc(-c2cc(C(=O)NCCO)[nH]n2)c2[nH]cc(C(=O)C(=O)N3CCc4c(cccc4-c4ccccn4)C3)c12` [Compound 9, N-(2-hydroxyethyl)-3-(4-methoxy-3-(2-oxo-2-(5-(pyridin-2-yl)-3,4-dihydroisoquinolin-2(1H)-yl)acetyl)-1H-pyrrolo[2,3-c]pyridin-7-yl)-1H-pyrazole-5-carboxamide], for which the EC50 under setting [1] was 0.17 nM.
With `COc1cnc(-n2ccc(C(F)(F)F)n2)c2[nH]cc(C(=O)C(=O)N3CCc4c(cccc4-c4ccccn4)C3)c12` [Compound 10, 1-(4-methoxy-7-(3-(trifluoromethyl)-1H-pyrazol-1-yl)-1H-pyrrolo[2,3-c]pyridin-3-yl)-2-(5-(pyridin-2-yl)-3,4-dihydroisoquinolin-2(1H)-yl)ethane-1,2-dione], under setting [2], the EC50 was below 100 nM.
Same read-out and setting: then `COc1cnc(-n2cncn2)c2[nH]cc(C(=O)C(=O)N3CCc4c(cccc4-c4ccccn4)C3)c12` [Compound 11, 1-(4-methoxy-7-(1H-1,2,4-triazol-1-yl)-1H-pyrrolo[2,3-c]pyridin-3-yl)-2-(5-(pyridin-2-yl)-3,4-dihydroisoquinolin-2(1H)-yl)ethane-1,2-dione], with below 100 nM; and `COc1cnc(-n2cnc(C(F)(F)F)n2)c2[nH]cc(C(=O)C(=O)N3CCc4c(cccc4-c4ccccn4)C3)c12` [Compound 12, 1-(4-methoxy-7-(3-(trifluoromethyl)-1H-1,2,4-triazol-1-yl)-1H-pyrrolo[2,3-c]pyridin-3-yl)-2-(5-(pyridin-2-yl)-3,4-dihydroisoquinolin-2(1H)-yl)ethane-1,2-dione], with below 100 nM; and `COCc1ncnn1-c1ncc(OC)c2c(C(=O)C(=O)N3CCc4c(cccc4-c4ccccn4)C3)c[nH]c12` [Compound 13, 1-(4-methoxy-7-(5-(methoxymethyl)-1H-1,2,4-triazol-1-yl)-1H-pyrrolo[2,3-c]pyridin-3-yl)-2-(5-(pyridin-2-yl)-3,4-dihydroisoquinolin-2(1H)-yl)ethane-1,2-dione], with below 100 nM.
The same measure, in the same setting: the figure for `COCc1ncn(-c2ncc(OC)c3c(C(=O)C(=O)N4CCc5c(cccc5-c5ccccn5)C4)c[nH]c23)n1` [Compound 14, 1-(4-methoxy-7-(3-(methoxymethyl)-1H-1,2,4-triazol-1-yl)-1H-pyrrolo[2,3-c]pyridin-3-yl)-2-(5-(pyridin-2-yl)-3,4-dihydroisoquinolin-2(1H)-yl)ethane-1,2-dione] is below 100 nM; for `COc1cnc(-n2cnc(C(C)(F)F)n2)c2[nH]cc(C(=O)C(=O)N3CCc4c(cccc4-c4ccccn4)C3)c12` [Compound 17, 1-(7-(3-(1,1-difluoroethyl)-1H-1,2,4-triazol-1-yl)-4-methoxy-1H-pyrrolo[2,3-c]pyridin-3-yl)-2-(5-(pyridin-2-yl)-3,4-dihydroisoquinolin-2(1H)-yl)ethane-1,2-dione] it is below 100 nM; for `COc1cnc(-n2ccnn2)c2[nH]cc(C(=O)C(=O)N3CCc4c(ncnc4-c4ccccn4)C3)c12` [Compound 19, 1-(4-methoxy-7-(1H-1,2,3-triazol-1-yl)-1H-pyrrolo[2,3-c]pyridin-3-yl)-2-(4-(pyridin-2-yl)-5,6-dihydropyrido[3,4-d]pyrimidin-7(8H)-yl)ethane-1,2-dione] it is below 100 nM.
As to `COc1cnc(-c2cc(CO)[nH]n2)c2[nH]cc(C(=O)C(=O)N3CCc4c(ncnc4-c4ccccn4)C3)c12` [Compound 21, 1-(7-(5-(hydroxymethyl)-1H-pyrazol-3-yl)-4-methoxy-1H-pyrrolo[2,3-c]pyridin-3-yl)-2-(4-(pyridin-2-yl)-5,6-dihydropyrido[3,4-d]pyrimidin-7(8H)-yl)ethane-1,2-dione], under setting [2], the EC50 is below 100 nM.
On the same count and under the same terms, then `COc1cnc(-c2cc(C(C)(C)O)[nH]n2)c2[nH]cc(C(=O)C(=O)N3CCc4c(ncnc4-c4ccccn4)C3)c12` [Compound 22, 1-(7-(5-(2-hydroxypropan-2-yl)-1H-pyrazol-3-yl)-4-methoxy-1H-pyrrolo[2,3-c]pyridin-3-yl)-2-(4-(pyridin-2-yl)-5,6-dihydropyrido[3,4-d]pyrimidin-7(8H)-yl)ethane-1,2-dione], with below 100 nM.
Same read-out and setting: then `COc1cnc(-n2cnc(CO)n2)c2[nH]cc(C(=O)C(=O)N3CCc4c(ncnc4-c4ccccn4)C3)c12` [Compound 23, 1-(7-(3-(hydroxymethyl)-1H-1,2,4-triazol-1-yl)-4-methoxy-1H-pyrrolo[2,3-c]pyridin-3-yl)-2-(4-(pyridin-2-yl)-5,6-dihydropyrido[3,4-d]pyrimidin-7(8H)-yl)ethane-1,2-dione], with below 100 nM.
The same measure, in the same setting: then `COc1cnc(-n2cnc(C(C)O)n2)c2[nH]cc(C(=O)C(=O)N3CCc4c(ncnc4-c4ccccn4)C3)c12` (stereo not shown) [Compound 24, 1-(7-(3-(1-hydroxyethyl)-1H-1,2,4-triazol-1-yl)-4-methoxy-1H-pyrrolo[2,3-c]pyridin-3-yl)-2-(4-(pyridin-2-yl)-5,6-dihydropyrido[3,4-d]pyrimidin-7(8H)-yl)ethane-1,2-dione], with below 100 nM; and `COc1cnc(-n2cnc(C)n2)c2[nH]cc(C(=O)C(=O)N3CCc4c(cc(C#N)c(=O)n4-c4ccccc4)C3)c12` [Compound 25, 6-(2-(4-methoxy-7-(3-methyl-1H-1,2,4-triazol-1-yl)-1H-pyrrolo[2,3-c]pyridin-3-yl)-2-oxoacetyl)-2-oxo-1-phenyl-1,2,5,6,7,8-hexahydro-1,6-naphthyridine-3-carbonitrile], with below 100 nM.
As to `COc1cnc(-n2cnc(C)n2)c2[nH]cc(C(=O)C(=O)N3CCc4c(ccnc4-c4ccccn4)C3)c12` [Compound 26, 1-(4-methoxy-7-(3-methyl-1H-1,2,4-triazol-1-yl)-1H-pyrrolo[2,3-c]pyridin-3-yl)-2-(5-(pyridin-2-yl)-3,4-dihydro-2,6-naphthyridin-2(1H)-yl)ethane-1,2-dione], under setting [2], the EC50 was below 100 nM.
On the same count and under the same terms, then `COc1cnc(-n2cnc(C)n2)c2[nH]cc(C(=O)C(=O)N3CCc4c(ccnc4-c4ccccc4)C3)c12` [Compound 27, 1-(4-methoxy-7-(3-methyl-1H-1,2,4-triazol-1-yl)-1H-pyrrolo[2,3-c]pyridin-3-yl)-2-(5-phenyl-3,4-dihydro-2,6-naphthyridin-2(1H)-yl)ethane-1,2-dione], with below 100 nM; and `COc1cnc(-n2cnc(C)n2)c2[nH]cc(C(=O)C(=O)N3CCc4c(-c5ccccn5)cccc4C3O)c12` (stereo not shown) [Compound 28, 1-(1-hydroxy-5-(pyridin-2-yl)-3,4-dihydroisoquinolin-2(1H)-yl)-2-(4-methoxy-7-(3-methyl-1H-1,2,4-triazol-1-yl)-1H-pyrrolo[2,3-c]pyridin-3-yl)ethane-1,2-dione], with below 100 nM; and `COc1cnc(-c2cc(CO)[nH]n2)c2[nH]cc(C(=O)C(=O)N3CCc4c(cccc4-c4ccccn4)C3)c12` [Compound 29, 1-(7-(5-(hydroxymethyl)-1H-pyrazol-3-yl)-4-methoxy-1H-pyrrolo[2,3-c]pyridin-3-yl)-2-(5-(pyridin-2-yl)-3,4-dihydroisoquinolin-2(1H)-yl)ethane-1,2-dione], with below 100 nM.
On to `COc1cnc(Cl)c2[nH]cc(C(=O)C(=O)N3CCc4c(cccc4-c4ccccn4)C3)c12` [Compound 30, 1-(7-chloro-4-methoxy-1H-pyrrolo[2,3-c]pyridin-3-yl)-2-(5-(pyridin-2-yl)-3,4-dihydroisoquinolin-2(1H)-yl)ethane-1,2-dione], for which the EC50 under setting [1] came out at 171 nM.

Source of the values: patent US8242124B2, “Diketopiperidine derivatives as HIV attachment inhibitors” (priority 2008, dated 2012).
